From article PMC12627007, “HIV nucleocapsid proteins as targets for novel 1,2-benzisothiazol-3(2H)-one benzenesulfonamides: synthesis and antiretroviral activity” (Frontiers in Microbiology, 2025)

Legend:
Type in all cases: cell-based
[1] = system: HIV-1 EFVR (K103R + V179D + P225H); experiment: Inhibition of virus-induced cytopathogenicity in MT-4 cells, NNRTI-resistant mutant EFVR; conditions: for EC50: Human immunodeficiency virus 1, MT4, read-out: EC50 EFVR; for Selectivity Index (SI = CC50/EC50) EFVR: in round brackets
Experimental: (§1) HIV-1IIIB and HIV-2 CBL-20 strains were obtained from the supernatants of persistently infected H9/IIIB and CEM cells, respectively. HIV-1 and HIV-2 stock solutions had titres of 4.5 × 10^7 and 1.4 × 10^6 50% cell culture infectious doses (CCID50)/ml, respectively. […] The K103R + V179D + P225H mutant (EFVR) was derived from an IIIB strain passaged in MT-4 cells in the presence of Efavirenz (up to 2 μM). N119, A17 and EFV^R stock solutions had titres of 1.2 × 10^8, 2.1 × 10^7, and 4.0 × 10^7 CCID50/ml, respectively.
(§2) The activity of the test compounds against the replication of HIV-1 wt and mutant strains (N119, A17, EFV^R, AZT^R, MDR, SAQ^R) and HIV-2 wt in acutely infected cells was based on the inhibition of virus-induced cytopathogenicity in MT-4 and C8166 cells, respectively. Briefly, 50 μL of culture medium containing 1 × 10^4 cells was added to each well of flat-bottom microtitre trays containing 50 μL of culture medium with or without different serial concentrations of test compounds. Then, 20 μL of an HIV suspension (containing the appropriate amount of CCID50 required to cause complete cytopathogenicity on day 4, final multiplicity of infection [m.o.i.] 0.01) was added.

[2] = Cytotoxicity in mock-infected MT-4 cells (MTT method); conditions: human
Experimental: as §2, with “added. After incubation at 37 °C, cell viability was determined using the […] (MTT) method ([Pauwels et al., 1988]). The cytotoxicity of the test compounds was evaluated in parallel with their antiviral activity through the viability of mock-infected, treated cells, as monitored by the MTT method and described elsewhere ([Morellet et al., 1994]).” for “added.”

[3] = system: HIV-1 IIIB strain; experiment: microbe, parasite or virus in culture; conditions: for EC50: Human immunodeficiency virus 1, IIIB, MT4, read-out: EC50 HIV-1; for Selectivity Index (SI = CC50/EC50) HIV-1: IIIB strain, in round brackets
Experimental: as §1, §2

[4] = system: HIV-1 SAQR (L10F, G48V, L90M); experiment: Inhibition of virus-induced cytopathogenicity in MT-4 cells, PRI-resistant mutant SAQR; conditions: for EC50: Human immunodeficiency virus 1, MT4, read-out: EC50 SAQR; for Selectivity Index (SI = CC50/EC50) SAQR: in round brackets
Experimental: as §1, §2

[5] = system: HIV-1 A17 (K103N + Y181C); experiment: Inhibition of virus-induced cytopathogenicity in MT-4 cells, NNRTI-resistant mutant A17; conditions: for EC50: Human immunodeficiency virus 1, MT4, read-out: EC50 A17; for Selectivity Index (SI = CC50/EC50) A17: in round brackets
Experimental: as §1, §2

[6] = system: HIV-1 MDR (74V, 41L, 106A, 215Y); experiment: Inhibition of virus-induced cytopathogenicity in MT-4 cells, NRTI-resistant mutant MDR; conditions: for EC50: Human immunodeficiency virus 1, MT4, read-out: EC50 MDR; for Selectivity Index (SI = CC50/EC50) MDR: in round brackets
Experimental: as §1, §2

[7] = system: HIV-1 N119 (Y181C); experiment: Inhibition of virus-induced cytopathogenicity in MT-4 cells, NNRTI-resistant mutant N119; conditions: for EC50: Human immunodeficiency virus 1, MT4, read-out: EC50 N119; for Selectivity Index (SI = CC50/EC50) N119: in round brackets
Experimental: as §1, §2

[8] = system: HIV-1 AZTR (67N, 70R, 215F, 219Q); experiment: Inhibition of virus-induced cytopathogenicity in MT-4 cells, NRTI-resistant mutant AZTR; conditions: for EC50: Human immunodeficiency virus 1, MT4, read-out: EC50 AZTR; for Selectivity Index (SI = CC50/EC50) AZTR: in round brackets
Experimental: as §1, §2

Row | Compound | EC50 [1] [µM] | Selectivity Index (SI = CC50/EC50) EFVR [1] | CC50 at 4 days [2] [µM] | EC50 [3] [µM] | Selectivity Index (SI = CC50/EC50) HIV-1 [3] | EC50 [4] [µM] | Selectivity Index (SI = CC50/EC50) SAQR [4] | EC50 [5] [µM] | Selectivity Index (SI = CC50/EC50) A17 [5] | EC50 [6] [µM] | Selectivity Index (SI = CC50/EC50) MDR [6] | EC50 [7] [µM] | Selectivity Index (SI = CC50/EC50) N119 [7] | EC50 [8] [µM] | Selectivity Index (SI = CC50/EC50) AZTR [8] | CC50 ([2]; MT-4, MTT method) [µM]
1 | O=c1c2ccccc2sn1NS(=O)(=O)c1cc(Cl)cc(Cl)c1 [Compound 16, 3,5-Dichloro-N-(3-oxo-1,2-benzisothiazol-2(3H)-yl)benzenesulfonamide] | 10 ± 3 | 8 | 86 ± 1 | 16 ± 5 | 5 | 12 ± 2 | 7 | 11 ± 2 | 7 | 13 ± 2 | 6 | 7 ± 0.4 | 12 | 8 ± 0.7 | 10 | 
2 | O=c1c2ccccc2sn1NS(=O)(=O)c1cccc(Cl)c1 [Compound 14, 3-Chloro-N-(3-oxo-1,2-benzisothiazol-2(3H)-yl)benzenesulfonamide] | 7 ± 1 |  | 40 ± 2 | 5 ± 1 | 8 | 4 ± 0.7 | 10 | 3 ± 1 |  | 6 ± 1 | 6 | 7 ± 1.4 | 5 | 6 ± 0.7 | 6 | 
3 | O=c1c2ccccc2sn1NS(=O)(=O)c1ccc(Cl)cc1 [Compound 13, 4-Chloro-N-(3-oxo-1,2-benzisothiazol-2(3H)-yl)benzenesulfonamide] | 3 ± 1 | 10 | 33 ± 0.1 | 11 ± 4 | 3 | 8 ± 2 | 4 | 8 ± 1.4 | 4 | 7 ± 2 | 4 | 6 ± 0.9 | 5 | 7 ± 1 | 4 | 
4 | O=c1c2ccccc2sn1NS(=O)(=O)c1ccc([N+](=O)[O-])cc1 [Compound 8, 4-Nitro-N-(3-oxo-1,2-benzisothiazol-2(3H)-yl)benzenesulfonamide] | 9 ± 2 | > 11 | > 100 | 15 ± 4 | > 7 | 8 ± 1 |  | 11 ± 2 | > 9 | 6 ± 0.5 |  | 7 ± 0.5 | > 14 | 7 ± 0.7 |  | 
5 | O=c1c2cc(Cl)ccc2sn1NS(=O)(=O)c1ccccc1Cl [Compound 18, 2-Chloro-N-(5-chloro-3-oxo-1,2-benzisothiazol-2(3H)-yl)benzenesulfonamide] | 7 ± 2 | > 14 | > 100 | 16 ± 3 | > 6 | 15 ± 3 | > 6 | 20 ± 4 | > 5 | 16 ± 2 | > 6 | 14 ± 1 | > 5 | 12 ± 2 | > 8 | 
6 | O=c1c2ccccc2sn1NS(=O)(=O)c1ccc(Cl)c(Cl)c1 [Compound 15, 3,4-Dichloro-N-(3-oxo-1,2-benzisothiazol-2(3H)-yl)benzenesulfonamide] | 8 ± 1.5 | 8 | 66 ± 3 | 15 ± 4 | 4 | 8 ± 2 | 8 | 8 ± 2 | 8 | 11 ± 3 | 6 | 7 ± 0.1 | 9 | 6 ± 1 | 11 | 
7 | O=c1c2ccccc2sn1NS(=O)(=O)c1ccc(F)cc1 [Compound 11, 4-Fluoro-N-(3-oxo-1,2-benzisothiazol-2(3H)-yl)benzenesulfonamide] | 2 ± 0.7 | 25 | 50 ± 4 | 5 ± 2 | 10 | 4 ± 0.7 | 12 | 5 ± 0.2 | 10 | 6 ± 0.5 | 8 | 5 ± 0.5 | 10 | 5 ± 0.5 | 10 | 
8 | Cc1ccc(S(=O)(=O)N(n2sc3ccccc3c2=O)S(=O)(=O)c2ccc(C)cc2)cc1 [Compound 21, 4-Methyl-N-[(4-methylphenyl)sulfonyl]-N-(3-oxo-1,2-benzisothiazol-2(3H)-yl)benzenesulfonamide] | 70 |  | > 100 | 76 |  | 63 |  | 58 |  | 63 |  | 44 |  | 70 |  | 
9 | COc1ccc(S(=O)(=O)Nn2sc3ccccc3c2=O)cc1 [Compound 9, 4-Methoxy-N-(3-oxo-1,2-benzisothiazol-2(3H)-yl)benzenesulfonamide] | 6 ± 0.7 | 9 | 56 ± 0.1 | 8 ± 2 | 7 | 7 ± 1 | 8 | 8 ± 1 | 7 | 6 ± 0.7 | 9 | 6 ± 0.5 | 9 | 5 ± 1 | 11 | 
10 | O=c1c2ccccc2sn1N(S(=O)(=O)c1ccccc1)S(=O)(=O)c1ccccc1 [Compound 20, N-(3-oxo-1,2-benzisothiazol-2(3H)-yl)-N-(phenylsulfonyl)benzenesulfonamide] | 22 ± 1 | > 4 | > 100 | 22 ± 3.5 |  | 25 ± 3 | > 4 | 25 ± 2 | > 4 | 19 ± 1 | > 5 | 23 ± 1 |  | 20 ± 2 | > 5 | 
11 | CC(C)(C)NC(=O)[C@@H]1C[C@@H]2CCCC[C@@H]2CN1C[C@@H](O)[C@H](Cc1ccccc1)NC(=O)[C@H](CC(N)=O)NC(=O)c1ccc2ccccc2n1 [SAQ, saquinavir, reference compound] | 0.01 ± 0.005 |  |  | 0.01 ± 0.001 |  | 0.5 ± 0.1 |  | 0.01 ± 0.002 |  | 0.02 ± 0.007 |  | 0.02 ± 0.001 |  | 0.01 ± 0.005 |  | ≥ 20
12 | O=c1c2ccccc2sn1N(S(=O)(=O)c1ccc(F)cc1)S(=O)(=O)c1ccc(F)cc1 [Compound 23, 4-Fluoro-N-[(4-fluorolphenyl)sulfonyl]-N-(3-oxo-1,2-benzisothiazol-2(3H)-yl)benzenesulfonamide] | 25 |  | 36 ± 2.5 | 26 ± 2 |  | 22 |  | 24 |  | 25 |  | 23 ± 1 |  | 22 |  | 
